US20140094413A1, “HEPATOCYTE GROWTH FACTOR (HGF) MIMICS AS THERAPEUTIC AGENTS” (WASHINGTON STATE UNIVERSITY, priority 2012, published 2014)
Where “and” joins values, the source holds several entries; their conditions need not be identical. Identical values can stand only once. Where a SMILES comes first, the peptide text is derived from it. [ ]: non-standard residue; d: D form. The star is where a group is joined. Nle = CCCC[C@H](N)C(=O)O; Hexanoyl = CCCCCC(=O)*; Ahx = NCCCCCC(=O)O

Key:
[1] = system: hippocampal neurons transfected with shMet; assay: Spinogenesis after c-Met knock-down with shRNA; format: cell-based, rat; conditions: HGF 10 ng/ml, 48 hours
From the text: Neurons were transfected with mRFP-β-actin on day in vitro 6 (DIV6) using LipofectAMINE™ 2000 (Invitrogen) according to the manufacturer's protocol. This protocol yielded the desired 3-5% transfection efficiency thus enabling the visualization of individual neurons. Higher efficiencies obscured the dendritic arbor of individual neurons. Expression of fluorescently tagged actin allowed clear visualization of dendritic spines, as dendritic spines are enriched in actin. On DIV7 the cells were treated with vehicle (H20) or peptides (as described in the text) added to media. On DIV12 the neurons were fixed (4% paraformaldehyde, 3% sucrose, 60 mM PIPES, 25 mM HEPES, 5 mM EGTA, 1 mM MgCl2, pH 7.4) for 20 min at room temperature and mounted. Slides were dried for at least 20 hours at 4° C. and fluorescent images were obtained with Slidebook 4.2 Digital Microscopy Software driving an Olympus IX81 inverted confocal microscope with a 60× oil immersion lens, NA 1.4 and resolution 0.280 μm Dendritic spine density was measured on primary and secondary dendrites at a distance of at least 150 μm from the soma. Five 50 μm long segments of dendrite from at least 10 neurons per data point were analyzed for each data point reported. Each experiment was repeated at least three times using independent culture preparations. Dendrite length was determined using the National Institutes of Health's Image J 1.41o program (NIH, Bethesda, Md.) and the neurite tracing program Neuron J (Meijering, Jacob et al. 2004) Spines were manually counted.
A target sequence for c-Met was designed using RNAi central design program (see the website located at cancan.cshl.edu/). […]. The shRNA was transfected into cells using the lipofectamine method described above. Verification of receptor knockdown was done by creating a c-Met-6-Myc tagged gene product using the Gateway cloning system (Invitrogen). The Met protein coding sequence was cloned from rat whole brain cDNA using primers obtained from Integrated DNA Technologies, Inc. The amplified product was gel purified and a band corresponding to […] band excised and cloned into a PCAGGS-6-Myc destination vector (Gateway).
To irrefutably confirm that the AngIV analogues act via the HGF/c-met system an shRNA for c-Met was employed to knock-down the receptor. Dissociated hippocampal neurons were transfected with mRFP-β-actin and shMet RNA and receptor knock-down was allowed to take place for 48 hours prior to stimulating with 0.5 μg (per well) HGF (10 ng/ml), Dihexa or Nle1-AngIV (both at 10^−12M). Longer exposure appeared to be detrimental or toxic to the neurons. Effective c-Met receptor knock-down was verified by transfecting human embryonic kidney (HEK) cells with (0.1 μg) 6-Myc-tagged c-Met, (0.1 μg) shMet or mRFP-β-actin alone. Successful knockdown was confirmed by immunoblotting for Myc tagged c-met using an anti-Myc antibody (FIG. 19).

CA1 hippocampal neurons = assay: Spinogenesis in organotypic hippocampal slice cultures; format: cell-based, rat
Description: (§1) Hippocampi from P4 Sprague Dawley rats were cultured as previously described (Wayman, Impey et al. 2006). Briefly, 400 μm slices were cultured on (Milipore, Billerica, Mass.) for 3 days after which they were biolistically transfected with tomato fluorescent protein (TIT) using a Helios Gen Gun (BioRad, Hercules, Calif.), according to the manufacturer's protocol, to visualize dendritic arbors. Following a 24 hour recovery period slices were stimulated with vehicle (H2O), […] Nle1-AngIV or Dihexa for 2 days. Slices were fixed and mounted. Hippocampal CA1 neuronal processes were imaged and measured as described above.
as §1, with “(TFP)” for “(TIT)”, “Gene” for “Gen”, “with” for “with vehicle (H2O),”

[2] = neurons transfected with mRFP-β-actin alone, Dihexa or Nle1-AngIV 10^−12M
[3] = neurons transfected with mRFP-β-actin and shMet, Dihexa or Nle1-AngIV 10^−12 M

Compound | Mean spine numbers per 50 μm dendrite length [1, 2] | Mean spine numbers per 50 μm dendrite length [1, 3] | Spines per 50 μm dendrite length, CA1 neurons (CA1 hippocampal neurons; 10^−12 M, 2 days) | Spines per 50 μm dendrite length, CA1 neurons (CA1 hippocampal neurons; HGF 10 ng/ml, 48 hours)
CCCCCC(=O)N[C@@H](Cc1ccc(O)cc1)C(=O)N[C@H](C(=O)NCCCCCC(N)=O)[C@@H](C)CC [Dihexa, N-hexanoic-Tyr-Ile-(6)-aminohexanoic amide] (Hexanoyl-Tyr-Ile-[Ahx]-NH2) | 21.8 spines per 50 μm dendrite leng | 12.0 spines per 50 μm dendrite leng | 11 spines per 50 μm dendrite length and 15.0 spines per 50 μm dendrite length | 
CCCC[C@H](N)C(=O)N[C@@H](Cc1ccc(O)cc1)C(=O)N[C@H](C(=O)N[C@@H](Cc1c[nH]cn1)C(=O)N1CCC[C@H]1C(=O)N[C@@H](Cc1ccccc1)C(=O)O)[C@@H](C)CC [Nle1-AngIV, reference compound] (H-[Nle]YIHPF-OH; N-terminus and C-terminus assumed) | 20.0 spines per 50 μm dendrite leng | 12.1 spines per 50 μm dendrite leng | 11 spines per 50 μm dendrite length | 
HGF: Hepatocyte growth factor, recombinant, purchased from R&D Systems | 20.6 spines per 50 μm dendrite leng | 12.4 spines per 50 μm dendrite leng |  | 18.5 spines per 50 μm dendrite length
